The text below walks through data of publication PMC3725620 (Breast cancer research and treatment, 2011).

In assay [1] the target is prostaglandin E receptor EP4 (Homo sapiens, UniProt P35408). Put plainly: inhibition of 3H-PGE2 radioligand binding. Type of assay: cell-based.
The target in assay [2] is prostaglandin E receptor EP2 (Homo sapiens, UniProt P43116). Description: inhibition of 3H-PGE2 radioligand binding. Type of assay: cell-based.
Sequence of prostaglandin E receptor EP2 (P43116 whole entry): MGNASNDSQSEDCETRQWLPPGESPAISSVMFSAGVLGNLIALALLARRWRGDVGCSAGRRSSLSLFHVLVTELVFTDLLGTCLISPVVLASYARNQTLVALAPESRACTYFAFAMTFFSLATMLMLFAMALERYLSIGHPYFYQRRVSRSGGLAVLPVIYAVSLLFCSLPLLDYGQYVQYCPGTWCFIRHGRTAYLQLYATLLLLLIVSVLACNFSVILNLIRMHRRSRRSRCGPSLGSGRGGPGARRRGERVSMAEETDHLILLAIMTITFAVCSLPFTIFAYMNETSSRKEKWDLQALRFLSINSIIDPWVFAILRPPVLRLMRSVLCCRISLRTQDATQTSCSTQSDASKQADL

Sequence of prostaglandin E receptor EP4 (P35408 whole entry): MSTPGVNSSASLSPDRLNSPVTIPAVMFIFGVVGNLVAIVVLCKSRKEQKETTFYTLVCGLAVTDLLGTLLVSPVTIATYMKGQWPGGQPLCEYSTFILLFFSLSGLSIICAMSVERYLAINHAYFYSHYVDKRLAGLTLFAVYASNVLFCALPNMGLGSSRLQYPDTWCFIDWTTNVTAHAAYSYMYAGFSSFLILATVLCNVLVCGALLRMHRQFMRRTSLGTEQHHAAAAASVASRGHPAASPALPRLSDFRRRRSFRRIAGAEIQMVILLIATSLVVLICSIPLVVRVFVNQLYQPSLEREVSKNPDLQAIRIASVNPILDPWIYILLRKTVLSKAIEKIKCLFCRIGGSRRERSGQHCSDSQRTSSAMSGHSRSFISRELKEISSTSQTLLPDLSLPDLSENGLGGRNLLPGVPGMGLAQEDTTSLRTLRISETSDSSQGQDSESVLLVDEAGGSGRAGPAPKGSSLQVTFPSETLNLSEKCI

For orientation: IC50 means the concentration that inhibits the measured activity by half. A high value points to a need for much substance. As for `CO[C@@H]1[C@@H](O)[C@H](O[C@@H]2[C@@H](O)[C@H](O[C@H]3[C@H](O)[C@@H](O[C@@H]4OC[C@@H](O)[C@H](O)[C@H]4O)[C@H](O[C@H]4[C@H](OC5CC[C@]6(C)[C@H]7CCC89C(=O)O[C@@](C)(CCCC(C)C)C8[C@@H](OC(C)=O)C[C@@]9(C)C7=CC[C@H]6C5(C)C)OC[C@@H](OS(=O)(=O)O)[C@@H]4O)O[C@@H]3C)OC[C@H]2O)O[C@H](CO)[C@H]1O` (some centres unmarked) [FA, Frondoside A], the figures for the half-inhibitory concentration (IC50) in assay [1] and in assay [2] were approximately 3.7 µM and 16.5 µM, respectively.
